Test results taken from patent US8188135B2, “Compounds as cannabinoid receptor ligands” (priority 2008, dated 2012).
Read-outs that look alike come from different tables or passages of the source.

Legend:
[1] = biological target: T1, rat CB2 (Rattus norvegicus, UniProt Q9QZN9); experiment: rat CB2 cyclase functional assay (HitHunter cAMP); assay type: cell-based; set-up: expressed in transfected cells; host or cells: HEK; conditions: HEK cells, forskolin 18 μM
T1 sequence (Q9QZN9 1-360): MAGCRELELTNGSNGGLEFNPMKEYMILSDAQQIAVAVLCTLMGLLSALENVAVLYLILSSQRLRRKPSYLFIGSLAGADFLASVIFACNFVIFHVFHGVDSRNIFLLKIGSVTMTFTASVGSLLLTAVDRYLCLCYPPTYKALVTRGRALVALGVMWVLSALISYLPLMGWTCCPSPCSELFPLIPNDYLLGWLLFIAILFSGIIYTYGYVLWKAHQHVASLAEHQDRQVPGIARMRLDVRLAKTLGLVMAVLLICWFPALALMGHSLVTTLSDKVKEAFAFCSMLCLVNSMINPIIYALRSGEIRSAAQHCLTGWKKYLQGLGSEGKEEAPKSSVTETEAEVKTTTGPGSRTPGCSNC
Description: (§1) The cyclase functional assays were performed using the HitHunter™ cAMP assay kit from DiscoveRx (Fremont, Calif.) according to vendor's protocol. Briefly, HEK cells expressing CB2 or CB1 receptors (rat or human) were detached using cell dissociation buffer (Invitrogen, Carlsbad, Calif.), dispersed and placed in suspension at 10,000 cells per well in 96 well plates prior to the assay. Cell suspensions were incubated at 37° C. for 20 min with variable concentrations of test ligands and or 10 μM CP 55,940-positive control in the presence of a fixed concentration of forskolin (18 μM for rat CB2 and 37 μM for rat CB1) in Dulbescco's phosphate-buffered saline (Invitrogen, Carlsbad, Calif.) supplemented with bovine serum albumin (0.01% final concentration). The reactions were terminated by the addition of lysis buffer and the luminescence was detected following the procedure according to the manufacturer's instructions. EC50 values were calculated using sigmoidal dose-response curve fitting from Prism (GraphPad).

[2] = biological target: T2, Rat CB1 (Rattus norvegicus, UniProt P20272); experiment: rat CB1 cyclase functional assay (HitHunter cAMP); assay type: cell-based; conditions: HEK cells, forskolin 37 μM
T2 construct: expressed in transfected cells; host or cells: HEK
T2 sequence (P20272 whole entry): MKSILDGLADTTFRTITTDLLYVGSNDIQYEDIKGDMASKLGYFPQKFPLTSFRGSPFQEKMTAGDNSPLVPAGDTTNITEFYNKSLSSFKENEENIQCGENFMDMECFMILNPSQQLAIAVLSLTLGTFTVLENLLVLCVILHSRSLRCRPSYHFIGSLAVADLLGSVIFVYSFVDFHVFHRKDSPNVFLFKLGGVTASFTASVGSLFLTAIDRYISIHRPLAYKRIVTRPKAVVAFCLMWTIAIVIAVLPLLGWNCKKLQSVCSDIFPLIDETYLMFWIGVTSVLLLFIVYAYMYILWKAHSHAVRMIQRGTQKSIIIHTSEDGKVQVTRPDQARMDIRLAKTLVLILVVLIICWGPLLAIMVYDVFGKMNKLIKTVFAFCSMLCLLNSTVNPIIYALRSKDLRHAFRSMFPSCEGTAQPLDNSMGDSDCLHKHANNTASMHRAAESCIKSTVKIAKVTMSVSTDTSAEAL
Description: as §1

[3] = biological target: T3, human CB2 receptors (Homo sapiens, UniProt P34972); experiment: human CB2 radioligand binding assay ([3H]CP 55,940 competition); conditions: HEK293 membranes, 0.5 nM [3H]CP 55,940
T3 construct: expressed in transfected cells; host or cells: HEK293
T3 sequence (P34972 whole entry): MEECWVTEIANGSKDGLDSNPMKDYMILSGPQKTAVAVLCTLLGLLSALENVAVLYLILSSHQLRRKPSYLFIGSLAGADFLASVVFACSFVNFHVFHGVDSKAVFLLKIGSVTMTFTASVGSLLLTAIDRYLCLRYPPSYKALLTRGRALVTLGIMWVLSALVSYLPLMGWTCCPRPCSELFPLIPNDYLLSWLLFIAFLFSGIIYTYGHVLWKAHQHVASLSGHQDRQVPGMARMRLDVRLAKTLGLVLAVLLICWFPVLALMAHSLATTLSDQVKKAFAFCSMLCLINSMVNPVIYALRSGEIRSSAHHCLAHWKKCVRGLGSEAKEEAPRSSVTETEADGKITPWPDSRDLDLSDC
Procedure, shortened: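 Displacement of 0.5 nM [3H]CP 55,940 over 0.01 nM-10 μM test compound, measured on human CB2 membranes from stably transfected HEK293 cells. Incubation 90 min at 30 °C in Tris/EDTA/MgCl2/BSA, pH 7.4, then filter-bound radioactivity counted; 10 μM unlabeled CP 55,940 defined nonspecific binding.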

[4] = biological target: T1, rat CB2; experiment: rat CB2 radioligand binding assay ([3H]CP 55,940 competition); set-up: expressed in transfected cells; host or cells: HEK293; conditions: HEK293 membranes, 0.5 nM [3H]CP 55,940
Procedure, shortened: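 Competition binding against 0.5 nM [3H]CP 55,940 (pH 7.4 buffer with 0.5 mg/mL BSA, 30 °C, 45 min), with displacers spanning 0.01 nM–10 μM at five concentrations. Receptor source: stably transfected HEK293 membranes, 20 μg/well. Nonspecific binding defined by 10 μM unlabeled CP 55,940; readout by filtration and counting.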

[5] = read-out: rat CB2 cyclase (EC50)
[6] = read-out: Rat CB1 cyclase (EC50)

Structure (SMILES)	EC50 ([1]; rat CB2 cyclase (EC50, nM)) [nM]	EC50 ([2]; Rat CB1 cyclase (EC50, nM)) [nM]	Ki ([3]; human CB2 (Ki, nM)) [nM]	Ki ([4]; rat CB2 (Ki, nM)) [nM]	EC50 [1, 5] [nM]	EC50 [2, 6] [nM]	Ki ([3]; read-out: human CB2 (Ki)) [nM]	Ki ([4]; read-out: rat CB2 (Ki)) [nM]
Cn1c(C(C)(C)C)c/c(=N\C(=O)c2cc(C(F)(F)F)ccc2NC[C@@H]2CCCO2)n1C[C@H]1CCCO1 [Example 21, N-{(3E)-5-tert-butyl-1-methyl-2-[(2R)-tetrahydrofuran-2-ylmethyl]-1,2-dihydro-3H-pyrazol-3-ylidene}-2-{[(2S)-tetrahydrofuran-2-ylmethyl]amino}-5-(trifluoromethyl)benzamide]	0.19	901	0.9	0.6	–	–	–	–
Cn1c(C(C)(C)C)c/c(=N\C(=O)c2cc(C(F)(F)F)ccc2OCCNS(=O)(=O)C2CC2)n1C[C@H]1CCCO1 [Example 49, N-{(3E)-5-tert-butyl-1-methyl-2-[(2R)-tetrahydrofuran-2-ylmethyl]-1,2-dihydro-3H-pyrazol-3-ylidene}-2-{2-[(cyclopropylsulfonyl)amino]ethoxy}-5-(trifluoromethyl)benzamide]	0.12	4190	13	2.7	–	–	–	–
Cn1c(C(C)(C)C)c/c(=N\C(=O)c2cc(C(F)(F)F)ccc2OCCNC(=O)OC(C)(C)C)n1C[C@H]1CCCO1 [Example 41, tert-butyl 2-[2-[({(3E)-5-tert-butyl-1-methyl-2-[(2R)-tetrahydrofuran-2-ylmethyl]-1,2-dihydro-3H-pyrazol-3-ylidene}amino)carbonyl]-4-(trifluoromethyl)phenoxy]ethylcarbamate]	–	–	96	21	1000	> 27000	–	–
CC1CCC(COc2ccc(C(F)(F)F)cc2C(=O)N=c2cc(C(C)(C)C)n(C)n2CC2CCCO2)O1 (single isomer, unassigned) [Example 36]	2.7	8410	74	108	–	–	–	–
Cn1c(C(C)(C)C)c/c(=N\C(=O)c2cc(C(F)(F)F)ccc2OC[C@H]2OCC[C@H]2F)n1C[C@H]1CCCO1 [Example 24]	0.28	9200	16	20	–	–	–	–
Cn1c(C(C)(C)C)c/c(=N\C(=O)c2cc(C(F)(F)F)ccc2OC[C@@H]2CCC(C)(C)O2)n1C[C@H]1CCCO1 [Example 52]	–	–	–	–	0.93	> 27000	10	19
Cn1c(C(C)(C)C)c/c(=N\C(=O)c2cc(C(F)(F)F)ccc2OC[C@@H]2CCCCN2)n1C[C@H]1CCCO1 [Example 88, N-{(3E)-5-tert-butyl-1-methyl-2-[(2R)-tetrahydrofuran-2-ylmethyl]-1,2-dihydro-3 H-pyrazol-3-ylidene}-2-[(2S)-piperidin-2-ylmethoxy]-5-(trifluoromethyl)benzamide]	0.45	702	14	3.5	–	–	–	–
Cn1c(C(C)(C)C)c/c(=N\C(=O)c2cc(C(F)(F)F)ccc2OCCN2CCCC2=O)n1C[C@H]1CCCO1 [Example 15]	1.4	> 27000	193	203	–	–	–	–
Cn1c(C(C)(C)C)c/c(=N\C(=O)c2cc(C(F)(F)F)ccc2NC[C@H]2CCCO2)n1C[C@H]1CCCO1 [Example 23, N-{(3E)-5-tert-butyl-1-methyl-2-[(2R)-tetrahydrofuran-2-ylmethyl]-1,2-dihydro-3H-pyrazol-3-ylidene}-2-{[(2R)-tetrahydrofuran-2-ylmethyl]amino}-5-(trifluoromethyl)benzamide]	0.37	3420	4.7	2.8	–	–	–	–
Cn1c(C(C)(C)C)c/c(=N\C(=O)c2cc(C(F)(F)F)ccc2OCCNS(C)(=O)=O)n1C[C@H]1CCCO1 [Example 45, N-{(3E)-5-tert-butyl-1-methyl-2-[(2R)-tetrahydrofuran-2-ylmethyl]-1,2-dihydro-3H-pyrazol-3-ylidene}-2-{2-[(methylsulfonyl)amino]ethoxy}-5-(trifluoromethyl)benzamide]	0.47	4940	19	7.8	–	–	–	–
CC(C)(C)c1cn(C[C@H]2CCCO2)/c(=N/C(=O)c2cc(C(F)(F)F)ccc2OCCN2CCCC2)o1 [Example 77, N-[(2Z)-5-tert-butyl-3-[(2R)-tetrahydrofuran-2-ylmethyl]-1,3-oxazol-2(3 H)-ylidene]-2-(2-pyrrolidin-1-ylethoxy)-5-(trifluoromethyl)benzamide]	0.1	2560	96	73	–	–	–	–
Cn1c(C(C)(C)C)c/c(=N\C(=O)c2cc(C(F)(F)F)ccc2OC[C@@H]2CCN2)n1C[C@H]1CCCO1 [Example 2, 2-[(2S)-azetidin-2-ylmethoxy]-N-{(3E)-5-tert-butyl-1-methyl-2-[(2R)-tetrahydrofuran-2-ylmethyl]-1,2-dihydro-3H-pyrazol-3-ylidene}-5-(trifluoromethyl)benzamide]	0.77	11200	> 1000	195	–	–	–	–
CN1CCC[C@H]1COc1ccc(C(F)(F)F)cc1C(=O)/N=c1\oc(C(C)(C)C)cn1CC1CCC1 [Example 75]	0.19	1360	42	44	–	–	–	–
Cn1c(C(C)(C)C)c/c(=N\C(=O)c2cc(C(F)(F)F)cc(Cl)c2OC[C@@H]2CCCO2)n1C[C@H]1CCCO1 [Example 28, N-{(3E)-5-tert-butyl-1-methyl-2-[(2R)-tetrahydrofuran-2-ylmethyl]-1,2-dihydro-3H-pyrazol-3-ylidene}-3-chloro-2-[(2S)-tetrahydrofuran-2-ylmethoxy]-5-(trifluoromethyl)benzamide]	0.91	8090	44	15	–	–	–	–
Cn1c(C(C)(C)C)c/c(=N\C(=O)c2cc(C(F)(F)F)ccc2OC[C@@H]2CCCO2)n1Cc1ccc(F)cc1 [Example 30, N-[(3E)-5-tert-butyl-2-(4-fluorobenzyl)-1-methyl-1,2-dihydro-3H-pyrazol-3-ylidene]-2-[(2S)-tetrahydrofuran-2-ylmethoxy]-5-(trifluoromethyl)benzamide]	2.5	> 27000	28	23	–	–	–	–
Cn1c(C(C)(C)C)c/c(=N\C(=O)c2cc(C(F)(F)F)ccc2OCCCS(C)(=O)=O)n1C[C@H]1CCCO1 [Example 60, N-{(3E)-5-tert-butyl-1-methyl-2-[(2R)-tetrahydrofuran-2-ylmethyl]-1,2-dihydro-3 H-pyrazol-3-ylidene}-2-[3-(methylsulfonyl)propoxy]-5-(trifluoromethyl)benzamide]	0.26	> 27000	92	42	–	–	–	–
Cn1c(C(C)(C)C)c/c(=N\C(=O)c2cc(C(F)(F)F)ccc2OCC2CCS(=O)(=O)C2)n1C[C@H]1CCCO1 (stereo partly drawn) [Example 6, N-{(3E)-5-tert-butyl-1-methyl-2-[(2R)-tetrahydrofuran-2-ylmethyl]-1,2-dihydro-3H-pyrazol-3-ylidene}-2-[(1,1-dioxidotetrahydrothien-3-yl)methoxy]-5-(trifluoromethyl)benzamide]	7.5	11200	203	78	–	–	–	–
Cn1c(C(C)(C)C)c/c(=N\C(=O)c2cc(C(F)(F)F)ccc2OC[C@H]2COC(C)(C)O2)n1C[C@H]1CCCO1 [Example 18, N-{(3E)-5-tert-butyl-1-methyl-2-[(2R)-tetrahydrofuran-2-ylmethyl]-1,2-dihydro-3H-pyrazol-3-ylidene}-2-{[(4S)-2,2-dimethyl-1,3-dioxolan-4-yl]methoxy}-5-(trifluoromethyl)benzamide]	1.8	> 27000	37	22	–	–	–	–
